# According to US20140128357A1, “METHODS OF PRODUCING AND USING BRASSINOSTEROIDS TO PROMOTE GROWTH, REPAIR AND MAINTENANCE OF SKELETAL MUSCLE AND SKIN” (Rutgers University, priority 2010, published 2014):
# Legend:
# L6 rat myotubes [1] = assay: Protein synthesis, [3H]-phenylalanine incorporation in myotubes; type: cell-based; settings: for increase in protein synthesis above control levels: 4 h (FIG. 2A); for Protein synthesis (% increase over control): 4 h; for maximum increases in protein synthesis: dose response 0.3-30 μM (FIG. 8A)
# How it was run: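 Differentiated L6 rat myotubes (2% serum, 7–9 days) treated in triplicate in serum-free DMEM with compound (10 μM) or 0.1% ethanol vehicle plus 0.5 μCi/mL [3H]-phenylalanine for 4 h. TCA-precipitated protein counted by scintillation, normalised to total protein; IGF-1 6.5 nM positive control.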
# L6 rat myotubes [2] = assay: Protein degradation, release of acid-soluble [3H]-phenylalanine; type: cell-based; settings: 10 μM; for Protein degradation (% decrease over control): 4 h
# Description: In some aspects, cell culture experiments were carried out. Rat L6 skeletal muscle cell line CRL-1458 was obtained from ATCC (Manassas, Va.). Myoblasts were routinely maintained in Dulbecco's modified Eagle's medium (DMEM) containing 10% FBS and 0.1% penicillin-streptomycin at 37° C. and 5% CO2. Cells were subcultured into 24-well plates for protein synthesis, degradation, and cell viability studies and into 6-well plates for Western blot analyses (Greiner Bio One, Monroe, N.C.). Once cells reached 90% confluence, differentiation was induced by lowering the serum concentration to 2%, and medium was changed every 2 days. […] NIH 3T3 murine embryonic fibroblast cell line (ATCC #CCL-92) was maintained in DMEM and 10% FBS at 37° C. in 5% CO2, and passaged every 3-4 days.
# In various aspects, protein degradation is measured to determine the effect of brassinosteroid on a particular protein. All known methods for measuring protein degradation are included in the methods of the disclosure. The effect of brassinosteroids on protein degradation was investigated in fully differentiated myotubes as described by Fawcett et al. (Arch. Biochem. Biophys. 385:357-363, 2001) with slight modifications. Fully differentiated myotubes were incubated for 16 h to allow labeling of cellular proteins with 1.5 μCi/mL [^3H]-phenylalanine. […] The incubation was stopped by placing the cells on ice, and protein in the medium was precipitated with 5% trichloroacetic acid. Specific radioactivity of protein-free phenylalanine was quantified using liquid scintillation counter LS 6500 (Beckman Coulter, Fullerton, Calif.) and normalized to mg of total cell protein determined by BCA protein assay (Pierce Biotechnology, Rockford, Ill.).
# The bioactivity of HB and its analogs (as shown in Table 3) were also evaluated by measuring decreases in protein degradation in the L6 rat skeletal muscle cells in vitro. Cells were labeled overnight with [^3H]-phenylalanine and subsequently treated for 4 h in triplicate with vehicle (0.1% ethanol) or test compound (10 μM), and protein degradation was assessed as release of acid-soluble [^3H]-phenylalanine into the media normalized by total protein (Table 3).
SMILES,increase in protein synthesis above control levels (L6 rat myotubes [1]; 1 μM) [%],"time at which stimulated protein synthesis peaked (L6 rat myotubes [1]; 3 μM, 1-24 h study) [h]",Protein synthesis (% increase over control) (L6 rat myotubes [1]; 10 μM) [%],increase in protein synthesis above control levels (L6 rat myotubes [1]; 10 μM) [%],"Protein synthesis (% increase over control) (L6 rat myotubes [1]; 10 μM, listed as HB) [%]",increase in protein synthesis above control levels (L6 rat myotubes [1]; 20 μM) [%],maximum increases in protein synthesis (L6 rat myotubes [1]) [%],EC50 (L6 rat myotubes [1]; read-out: 50% effective dose for protein synthesis) [nM],Protein degradation (% decrease over control) (L6 rat myotubes [2]) [%],decrease in protein degradation vs control levels (L6 rat myotubes [2]; 4 h (FIG. 2C)) [%],"Protein synthesis (% increase over control) (L6 rat myotubes [1]; 10 μM, listed as (22S,23S)-homocastasterone) [%]","effect of structural modification on activation of protein synthesis, in words (L6 rat myotubes [1]; 10 μM)","effect of structural modification on protein degradation activity, in words (L6 rat myotubes [2])"
"CC[C@@H](C(C)C)[C@H](O)[C@@H](O)[C@@H](C)[C@H]1CC[C@H]2[C@@H]3COC(=O)[C@H]4C[C@H](O)[C@H](O)C[C@]4(C)[C@H]3CC[C@]12C [Compound 1, (22S,23S,24S)-2α,3α,22,23-tetrahydroxy-24 ethyl-β-homo-7-oxo-5α-cholestane-6-one]",12.4±2.3,3,37.2 ± 5.9,34.9±3.1,37.2±5.9,36.9±2.9,36.9±2.9,3000,−24.1 ± 5.5,9.5±0.9,,,
"CC[C@@H](C(C)C)[C@H](O)[C@@H](O)[C@@H](C)[C@H]1CC[C@H]2[C@@H]3CC(=O)[C@H]4C[C@H](O)[C@H](O)C[C@]4(C)[C@H]3CC[C@]12C [Compound 2, (22S,23S,24S)-2α,3α, 22,23-tetrahydroxy-24-ethyl-5α-cholestan-6-one]",,,41.0 ± 2.7,,,,40.7±4.9,,−23.1 ± 4.2,,41.0±2.7,,
"CC[C@@H](C(C)C)[C@H](O)[C@@H](O)[C@@H](C)[C@H]1CC[C@H]2[C@@H]3CC(=O)N[C@H]4C[C@H](O)[C@H](O)C[C@]4(C)[C@H]3CC[C@]12C [Compound 5, (22S,23S,24S)-2α,3α-22,23-tetrahydroxy-24-ethyl-B-homo-6-aza-5α-cholestan-7-one]",,,3.3 ± 12.4,,,,,,−13.6 ± 3.8,,,complete loss of activation of protein synthesis,only a minor effect on its biological activity
